Results: the supplement of paper PMC9103864

Assays:
[1] = system: BMSC (primary human bone marrow mesenchymal stromal cells); test: drug sensitivity score (DSS); higher = more sensitive
[2] = system: BMSC (primary human bone marrow mesenchymal stromal cells); test: absolute EC50 for viability; higher = less sensitive

In the case of `CCS(=O)(=O)c1cccc(-c2cc(C(=O)NC3CCN(C)CC3)c(C)c3[nH]c4ncc(C)cc4c23)c1` [TAK-901], the drug sensitivity score [1] is reported as 5.9 and the “absolute EC50 for viability” value [2] is reported as 265 nM.

For `CN(C)C/C=C/C(=O)Nc1cc2c(Nc3ccc(F)c(Cl)c3)ncnc2cc1O[C@H]1CCOC1` [Afatinib], the drug sensitivity score [1] was 2.9 and the “absolute EC50 for viability” value [2] was over 1000 nM.

In the case of `CC(=O)c1cc2c(o1)C(=O)c1ccccc1C2=O` [Napabucasin], the drug sensitivity score [1] is reported as 17.6 and the “absolute EC50 for viability” value [2] is reported as 640 nM.

For `Cc1cn(-c2cc(NC(=O)c3ccc(C)c(Nc4nccc(-c5cccnc5)n4)c3)cc(C(F)(F)F)c2)cn1` [Nilotinib], the drug sensitivity score [1] was 0 and the “absolute EC50 for viability” value [2] was over 10000 nM.

With `Cc1ccc(-n2nc(C(C)(C)C)cc2NC(=O)Nc2ccc(OCCN3CCOCC3)c3ccccc23)cc1` [Doramapimod] the drug sensitivity score [1] was 1 and the “absolute EC50 for viability” value [2] was over 10000 nM.

For `C[C@H]1O[C@@H](O[C@H]2[C@@H](O)C[C@H](O[C@H]3[C@@H](O)C[C@H](O[C@H]4CC[C@@]5(C)[C@H](CC[C@@H]6[C@@H]5C[C@@H](O)[C@]5(C)[C@@H](C7=CC(=O)OC7)CC[C@]65O)C4)O[C@@H]3C)O[C@@H]2C)C[C@H](O)[C@@H]1O` [Digoxin], the drug sensitivity score [1] was 13.7 and the “absolute EC50 for viability” value [2] was 52.9 nM.

For `CN(C)Cc1c(C(=O)NCCOc2ccc(C(=O)NO)cc2)oc2ccccc12` [Abexinostat], the drug sensitivity score [1] was 10.1 and the “absolute EC50 for viability” value [2] was 1280 nM.

`O=C(CCCCCCNC(=O)c1cnc(N(c2ccccc2)c2ccccc2)nc1)NO` [Rocilinostat] was tested, and the drug sensitivity score [1] was 1.8 and the “absolute EC50 for viability” value [2] was over 10000 nM.

`COc1ccc(-c2ccc3c(N4CCOC[C@@H]4C)nc(N4CCOC[C@@H]4C)nc3n2)cc1CO` [AZD8055] was tested, and the drug sensitivity score [1] was 17.8 and the “absolute EC50 for viability” value [2] was 207 nM.

With `COc1cc(Br)c(Nc2nc(-c3c(C)nc4ncccn34)cs2)c(Br)c1` [PTC-209] the drug sensitivity score [1] was 4 and the “absolute EC50 for viability” value [2] was over 10000 nM.

For `CO[C@@H]1[C@H](N(C)C(=O)c2ccccc2)C[C@H]2O[C@]1(C)n1c3ccccc3c3c4c(c5c6ccccc6n2c5c31)C(=O)NC4` [Midostaurin], the drug sensitivity score [1] was 7.5 and the “absolute EC50 for viability” value [2] was 1650 nM.

`O=C1CCc2c(Oc3ccc4c(c3)[C@@H]3[C@H](O4)[C@H]3c3nc4cc(C(F)(F)F)ccc4[nH]3)ccnc2N1` [BGB-283] was tested, and the drug sensitivity score [1] was 4.2 and the “absolute EC50 for viability” value [2] was over 10000 nM.

`CNC(=O)c1cc(Oc2ccc(NC(=O)Nc3ccc(Cl)c(C(F)(F)F)c3)c(F)c2)ccn1` [Regorafenib] was tested, and the drug sensitivity score [1] was 0.7 and the “absolute EC50 for viability” value [2] was over 10000 nM.

With `CN(c1ncccc1CNc1nc(Nc2ccc3c(c2)CC(=O)N3)ncc1C(F)(F)F)S(C)(=O)=O` the drug sensitivity score [1] was 3.2 and the “absolute EC50 for viability” value [2] was over 10000 nM.

`Cc1cc2c(F)c(Oc3ncnn4cc(OC[C@@H](C)O)c(C)c34)ccc2[nH]1` [Brivanib] was tested, and the drug sensitivity score [1] was 0 and the “absolute EC50 for viability” value [2] was over 1000 nM.

In the case of `CC(C)C[C@H](NC(=O)[C@@H](COC(C)(C)C)NC(=O)[C@H](Cc1ccc(O)cc1)NC(=O)[C@H](CO)NC(=O)[C@H](Cc1c[nH]c2ccccc12)NC(=O)[C@H](Cc1cnc[nH]1)NC(=O)[C@@H]1CCC(=O)N1)C(=O)N[C@@H](CCCNC(=N)N)C(=O)N1CCC[C@H]1C(=O)NNC(N)=O` [Goserelin], the drug sensitivity score [1] is reported as 0 and the “absolute EC50 for viability” value [2] is reported as over 10000 nM.

In the case of `C[C@H]1C[C@@H]2[C@H]([C@@H](O)C[C@@]3(C)[C@H]2CC[C@]3(O)C(=O)CO)[C@@]2(C)C=CC(=O)C=C12` [Methylprednisolone], the drug sensitivity score [1] is reported as 0 and the “absolute EC50 for viability” value [2] is reported as over 10000 nM.

With `COc1ccc(COc2cc3oc(=O)c4cc(C(C)O)ccc4c3cc2OC)cc1` (stereo not given) [Palomid-529] the drug sensitivity score [1] was 0 and the “absolute EC50 for viability” value [2] was over 10000 nM.

With `Cc1cc(Nc2cc(CN3CCOCC3)c3nc(C)c(Cc4ccc(Cl)cc4F)n3n2)n[nH]1` [Gandotinib] the drug sensitivity score [1] was 6.3 and the “absolute EC50 for viability” value [2] was 2490 nM.

For `C=CC(=O)Nc1cccc(Oc2nc(Nc3ccc(N4CCN(C)CC4)cc3)nc3ccsc23)c1` [Olmutinib], the drug sensitivity score [1] was 0 and the “absolute EC50 for viability” value [2] was over 1000 nM.

With `COCCOc1cnc2ccn([C@H](C)c3nnc4c(F)cc(-c5cnn(C)c5)cn34)c(=O)c2c1` [AMG-337] the drug sensitivity score [1] was 0 and the “absolute EC50 for viability” value [2] was 9930 nM.

For `CCC1=C[C@@H]2CN(C1)Cc1c([nH]c3ccccc13)[C@@](C(=O)OC)(c1cc3c(cc1OC)N(C)[C@H]1[C@@](O)(C(=O)OC)[C@H](OC(C)=O)[C@]4(CC)C=CCN5CC[C@]31[C@@H]54)C2` [Vinorelbine], the drug sensitivity score [1] was 16.5 and the “absolute EC50 for viability” value [2] was 1120 nM.

In the case of `Cc1[nH]c2ccccc2c1CCNCc1ccc(/C=C/C(=O)NO)cc1` [Panobinostat], the drug sensitivity score [1] is reported as 10.2 and the “absolute EC50 for viability” value [2] is reported as 124 nM.

`Nc1nc(N)c2nc(-c3cccc(O)c3)c(-c3cccc(O)c3)nc2n1` [TG100-115] was tested, and the drug sensitivity score [1] was 2.5 and the “absolute EC50 for viability” value [2] was over 10000 nM.

`COc1cc2ncnc(Oc3cccc(NC(=O)Nc4cc(C(C)(C)C(F)(F)F)on4)c3)c2cc1OC` was tested, and the drug sensitivity score [1] was 4.6 and the “absolute EC50 for viability” value [2] was over 10000 nM.

`COc1cc2nccc(Oc3ccc(NC(=O)Nc4cc(C)on4)c(Cl)c3)c2cc1OC` [Tivozanib] was tested, and the drug sensitivity score [1] was 7.6 and the “absolute EC50 for viability” value [2] was over 10000 nM.

`CC(C)N(C[C@H]1O[C@@H](n2cnc3c(N)ncnc32)[C@H](O)[C@@H]1O)[C@H]1C[C@@H](CCc2nc3cc(C(C)(C)C)ccc3[nH]2)C1` [Pinometostat] was tested, and the drug sensitivity score [1] was 0 and the “absolute EC50 for viability” value [2] was over 1000 nM.

`CC(C)n1nc(-c2ccc3oc(N)nc3c2)c2c(N)ncnc21` [Sapanisertib] was tested, and the drug sensitivity score [1] was 11.4 and the “absolute EC50 for viability” value [2] was 75.9 nM.

`CCCCCCCCc1ccc(CCC(N)(CO)CO)cc1` [Fingolimod] was tested, and the drug sensitivity score [1] was 5.8 and the “absolute EC50 for viability” value [2] was 3020 nM.

For `Clc1ccc(Nc2nnc(Cc3ccncc3)c3ccccc23)cc1` [Vatalanib], the drug sensitivity score [1] was 0 and the “absolute EC50 for viability” value [2] was over 10000 nM.

For `NC(=O)N1CCC(CC(=O)N2CCC([C@H]3c4ncc(Br)cc4CCc4cc(Cl)cc(Br)c43)CC2)CC1` [Lonafarnib], the drug sensitivity score [1] was 4.4 and the “absolute EC50 for viability” value [2] was over 100000 nM.

In the case of `O=c1[nH]c(C2CCCN2)nc2c1oc1ccc(Cl)cc12` (stereo not given), the drug sensitivity score [1] is reported as 0.6 and the “absolute EC50 for viability” value [2] is reported as over 10000 nM.

In the case of `CCOc1cc2ncc(C#N)c(Nc3ccc(OCc4ccccn4)c(Cl)c3)c2cc1NC(=O)/C=C/CN(C)C` [Neratinib], the drug sensitivity score [1] is reported as 2.3 and the “absolute EC50 for viability” value [2] is reported as over 1000 nM.

In the case of `CN1CCN(CCOc2cc(OC3CCOCC3)c3c(Nc4c(Cl)ccc5c4OCO5)ncnc3c2)CC1` [Saracatinib], the drug sensitivity score [1] is reported as 5 and the “absolute EC50 for viability” value [2] is reported as over 10000 nM.

For `CCn1c(C(=O)N(C2CC2)C2CC2)cc2c3c(ncn3C)c(Nc3cc(C)n(C)n3)nc21`, the drug sensitivity score [1] was 1 and the “absolute EC50 for viability” value [2] was over 10000 nM.

For `Cc1c(F)cc(C(=O)NC2CC2)cc1-c1ccc(C(=O)NCC(C)(C)C)cn1` [Losmapimod], the drug sensitivity score [1] was 0 and the “absolute EC50 for viability” value [2] was over 10000 nM.

For `Cc1cccc(CC(=O)N2CCc3c2ccc(-c2cn(C)c4ncnc(N)c24)c3F)n1`, the drug sensitivity score [1] was 0 and the “absolute EC50 for viability” value [2] was over 2500 nM.

`CNC(=O)c1ccc(C)c(-n2c(C)cc(OCc3ccc(F)cc3F)c(Br)c2=O)c1` was tested, and the drug sensitivity score [1] was 0 and the “absolute EC50 for viability” value [2] was over 1000 nM.

`N#CCNC(=O)c1ccc(-c2ccnc(Nc3ccc(N4CCOCC4)cc3)n2)cc1` [Momelotinib] was tested, and the drug sensitivity score [1] was 5.1 and the “absolute EC50 for viability” value [2] was over 10000 nM.

For `CC(C)NC(=O)COc1cccc(-c2nc(Nc3ccc4[nH]ncc4c3)c3ccccc3n2)c1` [KD025], the drug sensitivity score [1] was 0 and the “absolute EC50 for viability” value [2] was over 5000 nM.
